For four molecules, MIC and Activity results are on record in ChEMBL document CHEMBL2384955, “Structure-activity relationships in aminosterol antibiotics: the effect of stereochemistry at the 7-OH group” (2013).

The test system of test [1] is Pseudomonas aeruginosa. Briefly: Antibacterial activity against Pseudomonas aeruginosa ATCC 27853 assessed as growth inhibition assessed as cell viability after 24 hrs by resazurin-based microplate assay. The test is classed as functional. To be noted: ATCC 27853, 24 h.
Test [2] concerns Lipid bilayer. Put plainly: Binding affinity to DOPG large unilamellar vesicle assessed as release of calcein at 1 mg/mL measured for 1 min by spectrophotometric analysis.
The subject of test [3] is Lipid bilayer. Briefly: Binding affinity to zwitterionic DOPC large unilamellar vesicle assessed as release of calcein at 1 mg/mL measured for 1 min by spectrophotometric analysis relative to control.
Test [4] concerns Escherichia coli. Briefly: Antibacterial activity against Escherichia coli ATCC 25922 assessed as growth inhibition assessed as cell viability after 24 hrs by resazurin-based microplate assay. To be noted: ATCC 25922, 24 h. The format is functional. (In general: The colour change of resazurin is a common sign of viable cells or microbes.)
The test system of test [5] is Enterococcus faecalis. Briefly: Antibacterial activity against Enterococcus faecalis ATCC 29212 assessed as growth inhibition assessed as cell viability after 24 hrs by resazurin-based microplate assay. The format is functional. To be noted: ATCC 29212, 24 h.
Test [6] relates to Staphylococcus aureus. Briefly: Antibacterial activity against Staphylococcus aureus ATCC 29213 assessed as cell viability after 24 hrs by resazurin-based microplate assay. To be noted: ATCC 29213, 24 h. The format is functional.
Test [7] concerns Lipid bilayer. Briefly: Binding affinity to DOPC/DOPG large unilamellar vesicle assessed as release of calcein at 1 mg/mL measured for 1 min by spectrophotometric analysis.

The source made the active and inactive calls. The calls are words filed in the database; no cut-off is given here.

A word on the MIC: it is the least concentration at which growth counts as inhibited. Consider `CC(C)[C@@H](CC[C@@H](C)[C@H]1CC[C@H]2[C@@H]3[C@H](O)C[C@H]4C[C@@H](NCCCNCCCCN)CC[C@]4(C)[C@H]3CC[C@]12C)OS(=O)(=O)O.CC(O)C(=O)O`, for which the MIC worked out at 4 µg/mL in test [1], 8 µg/mL in test [4], 2 µg/mL in test [5] and 2 µg/mL in test [6]. Besides, the outcome in test [2] and in test [7] was Active. For the same molecule, the Activity in test [3] was 50%.

In the case of `CC(C)[C@@H](CC[C@@H](C)[C@H]1CC[C@H]2[C@@H]3[C@H](O)C[C@H]4C[C@@H](NCCCNCCCCNCCCN)CC[C@]4(C)[C@H]3CC[C@]12C)OS(=O)(=O)O.Cl`, the MIC in test [1] came to 8 µg/mL; in test [4] it was 2 µg/mL; in test [5], 32 µg/mL; in test [6], 4 µg/mL. Further, the result in test [2] and in test [7] was Active. Also, the Activity in test [3] is 50%.

`CC(C)[C@@H](CC[C@@H](C)[C@H]1CC[C@H]2[C@@H]3[C@@H](O)C[C@H]4C[C@@H](NCCCNCCCCN)CC[C@]4(C)[C@H]3CC[C@]12C)OS(=O)(=O)O.O=C(O)C(F)(F)F`: the MIC stood at 24 µg/mL in test [1], 12 µg/mL in test [4], 12 µg/mL in test [5] and 12 µg/mL in test [6]. Moreover, the result in test [2], in test [3] and in test [7] was inactive.

Turning to `CC(C)[C@@H](CC[C@@H](C)[C@H]1CC[C@H]2[C@@H]3[C@@H](O)C[C@H]4C[C@@H](NCCCNCCCCNCCCN)CC[C@]4(C)[C@H]3CC[C@]12C)OS(=O)(=O)O.O=C(O)C(F)(F)F`, the MIC is 32 µg/mL in test [1], 1 µg/mL in test [4], 16 µg/mL in test [5] and 8 µg/mL in test [6]. In test [2], the result was Active. Also, the Activity in test [3] is 50%. In addition, the outcome in test [7] was inactive.
